Values quoted from earlier work in US6689400B2, “Process of obtaining compositions of stable lutein and lutein derivatives” (Sabinsa Corporation, priority 2001, dated 2004).

What was measured:
[1] = exposure to white fluorescent light, carefully controlled conditions
[2] = room temperature or higher

For `CC1=C[C@H](O)CC(C)(C)[C@H]1/C=C/C(C)=C/C=C/C(C)=C/C=C/C=C(C)/C=C/C=C(C)/C=C/C1=C(C)C[C@@H](O)CC1(C)C` [lutein], the degradation of lutein [1] is given as 0.8-10.7 % per day and the stability [2] is given as “not stable”.
